What was measured:
Test in all cases: cell-based
Type in all cases: cell-based
[1] = molecular target: T1, hNav1.4 (Homo sapiens, UniProt P35499); conditions: ratio of IonWorks Quattro IC50 values
[2] = molecular target: hNav1.7 (Homo sapiens, UniProt Q15858); conditions: Table 12; PatchXpress, tonic block; read-out: PX hNav1.7 Tonic IC50
[3] = molecular target: T1, hNav1.4; conditions: Table 12

T1 sequence (P35499 whole entry): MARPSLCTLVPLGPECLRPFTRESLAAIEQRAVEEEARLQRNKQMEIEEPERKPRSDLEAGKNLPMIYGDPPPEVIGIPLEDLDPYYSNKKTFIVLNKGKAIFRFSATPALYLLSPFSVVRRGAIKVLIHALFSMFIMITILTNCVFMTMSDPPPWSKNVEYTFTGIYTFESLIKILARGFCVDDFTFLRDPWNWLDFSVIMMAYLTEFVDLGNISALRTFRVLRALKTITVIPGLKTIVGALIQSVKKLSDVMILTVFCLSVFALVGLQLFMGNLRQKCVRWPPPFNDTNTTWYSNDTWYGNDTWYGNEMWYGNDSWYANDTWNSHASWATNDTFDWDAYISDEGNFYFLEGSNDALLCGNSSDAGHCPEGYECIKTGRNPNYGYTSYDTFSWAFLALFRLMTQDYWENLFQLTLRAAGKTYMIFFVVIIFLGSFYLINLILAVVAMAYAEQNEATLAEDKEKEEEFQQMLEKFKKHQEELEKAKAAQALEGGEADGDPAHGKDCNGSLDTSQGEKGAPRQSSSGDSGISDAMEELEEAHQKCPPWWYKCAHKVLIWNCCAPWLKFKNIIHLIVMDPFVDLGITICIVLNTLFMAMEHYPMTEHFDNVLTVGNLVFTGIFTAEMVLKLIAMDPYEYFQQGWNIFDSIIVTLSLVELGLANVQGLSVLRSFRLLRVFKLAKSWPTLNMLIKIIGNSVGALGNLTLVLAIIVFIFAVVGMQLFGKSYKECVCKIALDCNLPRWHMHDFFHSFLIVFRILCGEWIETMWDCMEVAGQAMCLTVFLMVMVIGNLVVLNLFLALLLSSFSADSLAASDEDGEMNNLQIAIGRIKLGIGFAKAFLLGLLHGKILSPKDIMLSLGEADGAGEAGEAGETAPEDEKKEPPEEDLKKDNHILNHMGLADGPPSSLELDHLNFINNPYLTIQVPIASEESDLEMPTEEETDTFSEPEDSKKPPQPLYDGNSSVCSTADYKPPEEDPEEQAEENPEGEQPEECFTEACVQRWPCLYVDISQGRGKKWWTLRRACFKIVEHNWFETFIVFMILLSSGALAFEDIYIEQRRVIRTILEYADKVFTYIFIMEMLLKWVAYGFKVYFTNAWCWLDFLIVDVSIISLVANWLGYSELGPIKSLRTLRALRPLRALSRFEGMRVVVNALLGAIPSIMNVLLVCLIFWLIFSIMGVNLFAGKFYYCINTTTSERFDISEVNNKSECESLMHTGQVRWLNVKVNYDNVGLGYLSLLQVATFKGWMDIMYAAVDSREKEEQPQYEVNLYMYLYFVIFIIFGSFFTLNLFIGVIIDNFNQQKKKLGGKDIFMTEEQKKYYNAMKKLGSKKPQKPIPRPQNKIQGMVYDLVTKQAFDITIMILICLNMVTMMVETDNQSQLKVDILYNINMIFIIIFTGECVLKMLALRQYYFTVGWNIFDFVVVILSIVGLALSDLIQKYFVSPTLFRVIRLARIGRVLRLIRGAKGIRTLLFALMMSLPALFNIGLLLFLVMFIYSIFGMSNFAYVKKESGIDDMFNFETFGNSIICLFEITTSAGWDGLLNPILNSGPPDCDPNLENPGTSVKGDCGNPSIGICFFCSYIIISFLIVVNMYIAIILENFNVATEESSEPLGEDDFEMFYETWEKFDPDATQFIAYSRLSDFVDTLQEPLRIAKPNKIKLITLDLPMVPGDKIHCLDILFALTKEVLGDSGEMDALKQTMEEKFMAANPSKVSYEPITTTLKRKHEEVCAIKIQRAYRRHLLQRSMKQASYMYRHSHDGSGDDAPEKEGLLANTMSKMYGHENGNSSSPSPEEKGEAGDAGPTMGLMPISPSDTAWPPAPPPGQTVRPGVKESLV
hNav1.7, sequence (Q15858 whole entry): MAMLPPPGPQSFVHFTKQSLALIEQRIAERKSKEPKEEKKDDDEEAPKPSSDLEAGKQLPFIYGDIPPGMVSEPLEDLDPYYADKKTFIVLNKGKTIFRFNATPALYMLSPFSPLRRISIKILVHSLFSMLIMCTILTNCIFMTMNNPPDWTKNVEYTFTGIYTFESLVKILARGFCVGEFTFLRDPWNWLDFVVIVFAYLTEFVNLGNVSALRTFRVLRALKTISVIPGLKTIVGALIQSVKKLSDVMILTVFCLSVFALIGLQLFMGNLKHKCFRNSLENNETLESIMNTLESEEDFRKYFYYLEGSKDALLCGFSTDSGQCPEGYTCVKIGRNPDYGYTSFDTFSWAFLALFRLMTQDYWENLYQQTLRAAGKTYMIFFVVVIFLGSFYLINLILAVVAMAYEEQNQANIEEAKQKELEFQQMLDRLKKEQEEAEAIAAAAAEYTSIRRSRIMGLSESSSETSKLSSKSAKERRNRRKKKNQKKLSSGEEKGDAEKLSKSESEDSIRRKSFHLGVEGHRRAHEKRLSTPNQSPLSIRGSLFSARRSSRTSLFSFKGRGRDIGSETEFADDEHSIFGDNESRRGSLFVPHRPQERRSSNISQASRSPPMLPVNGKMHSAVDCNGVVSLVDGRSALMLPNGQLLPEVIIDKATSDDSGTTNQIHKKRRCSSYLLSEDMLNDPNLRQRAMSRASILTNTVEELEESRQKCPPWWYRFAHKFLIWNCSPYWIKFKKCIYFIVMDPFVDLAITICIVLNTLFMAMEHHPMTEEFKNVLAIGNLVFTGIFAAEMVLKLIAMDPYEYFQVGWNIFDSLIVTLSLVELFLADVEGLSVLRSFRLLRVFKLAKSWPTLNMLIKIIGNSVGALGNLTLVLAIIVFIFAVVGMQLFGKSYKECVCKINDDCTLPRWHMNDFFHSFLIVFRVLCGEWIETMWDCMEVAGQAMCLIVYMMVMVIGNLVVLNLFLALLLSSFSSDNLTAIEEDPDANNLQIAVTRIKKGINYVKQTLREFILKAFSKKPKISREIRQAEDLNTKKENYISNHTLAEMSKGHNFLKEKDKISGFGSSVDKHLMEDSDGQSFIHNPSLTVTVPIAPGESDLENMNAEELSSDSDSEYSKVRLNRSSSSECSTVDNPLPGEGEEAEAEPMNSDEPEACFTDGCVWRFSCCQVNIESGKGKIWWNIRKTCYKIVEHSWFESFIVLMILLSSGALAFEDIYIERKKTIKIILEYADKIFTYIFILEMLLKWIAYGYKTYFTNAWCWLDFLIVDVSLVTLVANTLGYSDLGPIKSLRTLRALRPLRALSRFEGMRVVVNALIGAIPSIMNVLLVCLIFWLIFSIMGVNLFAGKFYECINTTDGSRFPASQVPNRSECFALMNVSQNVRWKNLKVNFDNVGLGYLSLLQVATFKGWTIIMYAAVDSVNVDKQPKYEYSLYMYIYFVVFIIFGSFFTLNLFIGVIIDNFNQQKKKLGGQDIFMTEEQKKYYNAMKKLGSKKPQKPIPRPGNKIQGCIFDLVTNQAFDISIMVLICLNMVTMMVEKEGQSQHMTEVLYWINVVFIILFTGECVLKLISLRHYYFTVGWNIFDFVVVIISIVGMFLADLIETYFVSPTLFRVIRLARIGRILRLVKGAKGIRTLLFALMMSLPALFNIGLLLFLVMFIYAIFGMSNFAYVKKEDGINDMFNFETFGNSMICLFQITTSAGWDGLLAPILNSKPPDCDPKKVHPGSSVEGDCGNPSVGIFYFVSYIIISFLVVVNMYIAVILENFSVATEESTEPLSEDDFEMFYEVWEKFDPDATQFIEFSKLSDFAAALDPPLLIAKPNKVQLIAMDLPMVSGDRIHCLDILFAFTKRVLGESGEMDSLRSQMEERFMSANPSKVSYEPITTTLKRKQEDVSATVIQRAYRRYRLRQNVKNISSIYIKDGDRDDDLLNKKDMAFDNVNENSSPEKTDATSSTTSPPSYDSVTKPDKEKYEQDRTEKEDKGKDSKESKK

SMILES: CC[C@H](C)[C@H](NC(=O)[C@@H](NC(=O)[C@H](CCCCN)NC(=O)[C@H](CCCNC(=N)N)NC(=O)[C@@H]1CSSC[C@@H]2NC(=O)[C@H](C)NC(=O)[C@H](CCCNC(=N)N)NC(=O)[C@H](CCCCN)NC(=O)[C@H](CO)NC(=O)[C@H](CC(=O)O)NC(=O)[C@@H]3CSSC[C@H](NC(=O)[C@H](CCC(=O)O)NC(=O)[C@H](CC(C)C)NC(=O)CNC(=O)[C@H](CCC(=O)O)NC(=O)[C@H](CSSC[C@H](NC(=O)[C@@H](N)Cc4cn(CCCOCCOCCOCCOCCOCCOCCOCCOCCOCCOCCN)nn4)C(=O)N[C@@H](CCC(N)=O)C(=O)N[C@@H](CCCCN)C(=O)N[C@@H](Cc4c[nH]c5ccccc45)C(=O)N[C@@H](CCSC)C(=O)N[C@@H](Cc4c[nH]c5ccccc45)C(=O)N[C@@H]([C@@H](C)O)C(=O)N3)NC2=O)C(=O)N[C@@H](CCCCN)C(=O)N[C@@H](CC(C)C)C(=O)N[C@@H](Cc2c[nH]c3ccccc23)C(=O)N1)[C@@H](C)CC)C(N)=O [compound 165]
- Nav1.4/Nav1.7 ([1]; Table 9): 28

SMILES: CC[C@H](C)[C@H](NC(=O)[C@@H](NC(=O)[C@H](CCCCN)NC(=O)[C@H](CCCNC(=N)N)NC(=O)[C@@H]1CSSC[C@@H]2NC(=O)[C@H](C)NC(=O)[C@H](CCCNC(=N)N)NC(=O)[C@H](CCCCN)NC(=O)[C@H](CO)NC(=O)[C@H](CC(=O)O)NC(=O)[C@@H]3CSSC[C@H](NC(=O)[C@H](CCC(=O)O)NC(=O)[C@H](CC(C)C)NC(=O)CNC(=O)[C@H](CCC(=O)O)NC(=O)[C@H](CSSC[C@H](NC(=O)[C@@H](N)Cc4ccc(O)cc4)C(=O)N[C@@H](CCC(N)=O)C(=O)N[C@@H](CCCCN)C(=O)N[C@@H](Cc4c[nH]c5ccccc45)C(=O)N[C@@H](CCSC)C(=O)N[C@@H](Cc4c[nH]c5ccccc45)C(=O)N[C@@H]([C@@H](C)O)C(=O)N3)NC2=O)C(=O)N[C@@H](CCCCN)C(=O)N[C@@H](Cc2cn(CCCOCCOCCOCCOCCOCCOCCOCCOCCOCCOCCN)nn2)C(=O)N[C@@H](Cc2c[nH]c3ccccc23)C(=O)N1)[C@@H](C)CC)C(N)=O [compound 183]
- Nav1.4/Nav1.7 ([1]; Table 9): 1

SMILES: CC[C@H](C)[C@H](NC(=O)[C@@H](NC(=O)[C@H](CCCCN)NC(=O)[C@H](CCCNC(=N)N)NC(=O)[C@@H]1CSSC[C@@H]2NC(=O)[C@H](C)NC(=O)[C@H](CCCNC(=N)N)NC(=O)[C@H](CCCCN)NC(=O)[C@H](CO)NC(=O)[C@H](CC(=O)O)NC(=O)[C@@H]3CSSC[C@H](NC(=O)[C@H](CCCNC(=N)N)NC(=O)[C@H](CC(C)C)NC(=O)CNC(=O)[C@H](Cc4cccc5ccccc45)NC(=O)[C@H](CSSC[C@H](NC(=O)[C@@H](N)Cc4ccc(O)cc4)C(=O)N[C@@H](CCC(N)=O)C(=O)N[C@@H](CCCCN)C(=O)N[C@@H](Cc4c[nH]c5ccccc45)C(=O)N[C@@H](CCSC)C(=O)N[C@@H](Cc4c[nH]c5ccccc45)C(=O)N[C@@H]([C@@H](C)O)C(=O)N3)NC2=O)C(=O)N[C@@H](CCCCN)C(=O)N[C@@H](CC(C)C)C(=O)N[C@@H](Cc2c[nH]c3ccccc23)C(=O)N1)[C@@H](C)CC)C(N)=O [compound 37]
- Nav1.4/Nav1.7 ([1]; Table 6): 4

SMILES: CC[C@H](C)[C@H](NC(=O)[C@@H](NC(=O)[C@H](CCCCN)NC(=O)[C@H](CCCNC(=N)N)NC(=O)[C@@H]1CSSC[C@@H]2NC(=O)[C@H](C)NC(=O)[C@H](CCCNC(=N)N)NC(=O)[C@H](CCCCN)NC(=O)[C@H](CO)NC(=O)[C@H](CC(=O)O)NC(=O)[C@@H]3CSSC[C@H](NC(=O)[C@H](CCCNC(=N)N)NC(=O)[C@H](CC(C)C)NC(=O)CNC(=O)[C@H](CCC(=O)O)NC(=O)[C@H](CSSC[C@H](NC(=O)[C@@H](N)Cc4ccc(O)cc4)C(=O)N[C@@H](CCC(N)=O)C(=O)N[C@@H](CCCCN)C(=O)N[C@@H](Cc4c[nH]c5ccccc45)C(=O)N[C@@H](CCSC)C(=O)N[C@@H](Cc4c[nH]c5ccccc45)C(=O)N[C@@H]([C@@H](C)O)C(=O)N3)NC2=O)C(=O)N[C@@H](CCCCN)C(=O)N[C@@H](Cc2cccc3ccccc23)C(=O)N[C@@H](Cc2c[nH]c3ccccc23)C(=O)N1)[C@@H](C)CC)C(N)=O [compound 42]
- Nav1.4/Nav1.7 ([1]; Table 6): 3

SMILES: CC[C@H](C)[C@H](NC(=O)[C@H](Cc1cn(CCCOCCOCCOCCOCCOCCOCCOCCOCCOCCOCCN)nn1)NC(=O)[C@H](CCCCN)NC(=O)[C@H](CCCNC(=N)N)NC(=O)[C@@H]1CSSC[C@@H]2NC(=O)[C@H](C)NC(=O)[C@H](CCCNC(=N)N)NC(=O)[C@H](CCCCN)NC(=O)[C@H](CO)NC(=O)[C@H](CC(=O)O)NC(=O)[C@@H]3CSSC[C@H](NC(=O)[C@H](CCC(=O)O)NC(=O)[C@H](CC(C)C)NC(=O)CNC(=O)[C@H](CCC(=O)O)NC(=O)[C@H](CSSC[C@H](NC(=O)[C@@H](N)Cc4ccc(O)cc4)C(=O)N[C@@H](CCC(N)=O)C(=O)N[C@@H](CCCCN)C(=O)N[C@@H](Cc4c[nH]c5ccccc45)C(=O)N[C@@H](CCSC)C(=O)N[C@@H](Cc4c[nH]c5ccccc45)C(=O)N[C@@H]([C@@H](C)O)C(=O)N3)NC2=O)C(=O)N[C@@H](CCCCN)C(=O)N[C@@H](CC(C)C)C(=O)N[C@@H](Cc2c[nH]c3ccccc23)C(=O)N1)C(N)=O [compound 187]
- Nav1.4/Nav1.7 ([1]; Table 9): 3

SMILES: CC[C@H](C)[C@H](NC(=O)[C@@H](NC(=O)[C@H](CCCCN)NC(=O)[C@H](CCCNC(=N)N)NC(=O)[C@@H]1CSSC[C@@H]2NC(=O)[C@H](C)NC(=O)[C@H](CCCNC(=N)N)NC(=O)[C@H](CCCCN)NC(=O)[C@H](CO)NC(=O)[C@H](CC(=O)O)NC(=O)[C@@H]3CSSC[C@H](NC(=O)[C@H](CCC(=O)O)NC(=O)[C@H](CC(C)C)NC(=O)CNC(=O)[C@H](Cc4cn(CCCOCCOCCOCCOCCOCCOCCOCCOCCOCCOCCN)nn4)NC(=O)[C@H](CSSC[C@H](NC(=O)[C@@H](N)Cc4ccc(O)cc4)C(=O)N[C@@H](CCC(N)=O)C(=O)N[C@@H](CCCCN)C(=O)N[C@@H](Cc4c[nH]c5ccccc45)C(=O)N[C@@H](CCSC)C(=O)N[C@@H](Cc4c[nH]c5ccccc45)C(=O)N[C@@H]([C@@H](C)O)C(=O)N3)NC2=O)C(=O)N[C@@H](CCCCN)C(=O)N[C@@H](CC(C)C)C(=O)N[C@@H](Cc2c[nH]c3ccccc23)C(=O)N1)[C@@H](C)CC)C(N)=O [compound 178]
- Nav1.4/Nav1.7 ([1]; Table 9): 28

SMILES: C#CC[C@@H]1NC(=O)[C@@H]2CSSC[C@H](NC(=O)[C@H](Cc3ccc(O)cc3)NC(=O)[C@@H](N)CC#N)C(=O)N[C@@H](CCC(N)=O)C(=O)N[C@@H](CCCCN)C(=O)N[C@@H](Cc3c[nH]c4ccccc34)C(=O)N[C@@H](CCCC)C(=O)N[C@@H](Cc3c[nH]c4ccccc34)C(=O)N[C@@H]([C@@H](C)O)C(=O)N[C@H]3CSSC[C@H](NC(=O)[C@H](CCCNC(=N)N)NC(=O)[C@H](CC(C)C)NC(=O)CNC1=O)C(=O)N[C@@H](CCCCN)C(=O)N[C@@H](CC(C)C)C(=O)N[C@@H](Cc1c[nH]c4ccccc14)C(=O)N[C@H](C(=O)N[C@@H](CCCNC(=N)N)C(=O)N[C@@H](CCCCN)C(=O)N[C@@H](CCC(=O)O)C(=O)N[C@@H](CCc1ccccc1)C(N)=O)CSSC[C@H](NC(=O)[C@H](C)NC(=O)[C@H](CCCNC(=N)N)NC(=O)[C@H](CCCCN)NC(=O)[C@H](CO)NC(=O)[C@H](CC(=O)O)NC3=O)C(=O)N2 [compound 877]
- IC50 [2]: 0.16 nM
- IC50 ([3]; PatchXpress, tonic block, read-out: PX hNav1.4 Tonic IC50): 14.9 nM
- Nav1.4/Nav1.7 ([3]; ratio of PX tonic IC50 values): 93

— patent US10344060B2 (priority 2013, dated 2019)
